# Results from patent US20240180872A1, “METHODS AND COMPOUNDS OF CANNABIDIOL, MELATONIN AND AKBA FOR TREATING PANCREATIC CANCER” (priority 2021, published 2024).
# Assays:
# [1] = cited from earlier work
# [2] = test system: pancreatic adenocarcinoma associated genes; test: TaqMan Array gene expression in MIAPaCa-2, normalized for GAPDH; assay type: cell-based, Human; conditions: Mia-PACA-2, 24 hs, CBD 3.8, MLT 200, AKBA 7.5 micrograms/ml
# Protocol: Total RNA from untreated or CBD, MLT, AKBA alone and in combination treated cell lines was extracted using Rneasy Mini kit (Qiagen, Milan, Italy). One microgram of total RNA from each sample was subjected to reverse transcription in a total volume of 20 μL using the High-Capacity cDNA Archive Kit (Applied Biosystem, Foster City, […], USA) according to the instructions. cDNAs were analyzed by qRT-PCR performed using an IQ5 Multicolor Real time PCR Detection system. Quantitative real-time gene expression was performed with the TaqMan® Array Human Pancreatic Adenocarcinoma 96-well Plate, containing 92 assays to pancreatic adenocarcinoma associated genes and 4 assays to candidate endogenous control genes, was purchased (Thermo Fisher, Grand Island, NY, USA) and used to evaluate the treatments in modulating PDAC-related genes (Table 1). Measurement of different housekeeping genes (GAPDH; HPRT1; GUSB) on the samples was used to normalize mRNA content. The gene expression levels of treated cell lines were expressed as relative fold compared with untreated or vehicle-treated cells.
# To elucidate the molecular events induced by CBD, MLT and AKBA alone and in combination, 92 genes involved in PDAC progression and aggressiveness were evaluated by Taqman Array. Both cell lines were treated with CBD, MLT and AKBA alone and in combination, and the molecular pathways of PDAC associated gene were evaluated.
# Target mRNA levels were normalized for GAPDH expression.
# [3] = normalized for GAPDH, Akt pathways
# [4] = normalized for GAPDH, Akt-pathways
# [5] = normalized for GAPDH, DNA repair
# [6] = normalized for GAPDH, NfkB pathways
# [7] = normalized for GAPDH, Ras pathways
# [8] = normalized for GAPDH, TGF patways
# [9] = normalized for GAPDH, TGF-patways
# [10] = normalized for GAPDH, angiogenesis
# [11] = normalized for GAPDH, apoptosis
# [12] = normalized for GAPDH, cell cycle
# [13] = normalized for GAPDH, inflammation
# [14] = normalized for GAPDH, proliferation
structure (smiles),measurement,setting,value
"CC(=O)O[C@@H]1CC[C@@]2(C)[C@@H](CC[C@]3(C)[C@@H]2C(=O)C=C2[C@@H]4[C@@H](C)[C@H](C)CC[C@]4(C)CC[C@]23C)[C@@]1(C)C(=O)O [AKBA, (3R,4R,4aR,6aR,6bS,8aR,11R,12S,12aR,14aR,14bS)-3-acetyloxy-4,6a,6b,8a,11,12,14b-heptamethyl-14-oxo-1,2,3,4a,5,6,7,8,9,10,11,12,12a, 14a-tetradecahydropicene-4-carboxylic acid]",solubility,[1]; 1:2 solution of DMSO:PBS (pH 7.2),approximately 0.3 mg/ml
same,solubility in aqueous buffers,[1]; aqueous buffers,sparingly soluble
same,GAPDH relative expression,[2]; GAPDH is the normalizer,1.00
same,PK3CB relative expression,[2]; [3],0.19
same,PK3CD relative expression,[2]; [3],0.06
same,AKT1 relative expression,[2]; [4],0.18
same,AKT2 relative expression,[2]; [4],0.49
same,AKT3 relative expression,[2]; [4],0.00
same,IGF1 relative expression,[2]; [4],0.00
same,PK3CA relative expression,[2]; [4],0.02
same,PK3R1 relative expression,[2]; [4],0.04
same,BRCA2 relative expression,[2]; [5],0.12
same,MDM2 relative expression,[2]; [5],0.05
same,TP53 relative expression,[2]; [5],0.35
same,HSP90AA1 relative expression,"[2]; normalized for GAPDH, Heat sock protein",0.26
same,NFKB1 relative expression,[2]; [6],0.12
same,NFKB2 relative expression,[2]; [6],0.12
same,REL relative expression,[2]; [6],0.09
same,RELA relative expression,[2]; [6],0.11
same,RELB relative expression,[2]; [6],0.13
same,RHOA relative expression,[2]; [6],0.33
same,RHOB relative expression,[2]; [6],0.06
same,BRAF relative expression,[2]; [7],0.22
same,E2F1 relative expression,[2]; [7],0.17
same,E2F3 relative expression,[2]; [7],0.08
same,E2F4 relative expression,[2]; [7],0.22
same,EGF relative expression,[2]; [7],0.00
same,EGFR relative expression,[2]; [7],0.22
same,ELK1 relative expression,[2]; [7],0.13
same,ERBB2 relative expression,[2]; [7],0.08
same,GRB2 relative expression,[2]; [7],0.46
same,HBEGF relative expression,[2]; [7],0.53
same,KRAS relative expression,[2]; [7],0.11
same,MAP2K1 relative expression,[2]; [7],0.12
same,MAP2K2 relative expression,[2]; [7],0.12
same,MAPK1 relative expression,[2]; [7],0.72
same,MAPK3 relative expression,[2]; [7],0.00
same,RAF1 relative expression,[2]; [7],0.10
same,RB1 relative expression,[2]; [7],0.17
same,SOS1 relative expression,[2]; [7],0.11
same,TGFB2 relative expression,[2]; [8],0.10
same,TGFB3 relative expression,[2]; [8],0.05
same,TGFBR1 relative expression,[2]; [8],0.06
same,SMAD2 relative expression,[2]; [9],0.04
same,SMAD3 relative expression,[2]; [9],0.22
same,SMAD4 relative expression,[2]; [9],0.10
same,TGFA relative expression,[2]; [9],0.02
same,TGFB1 relative expression,[2]; [9],0.13
same,TGFBR2 relative expression,[2]; [9],0.09
same,FIGF relative expression,[2]; [10],0.00
same,VEGFA relative expression,[2]; [10],0.41
same,VEGFB relative expression,[2]; [10],0.16
same,VEGFC relative expression,[2]; [10],0.11
same,BCL2L1 relative expression,[2]; [11],0.28
same,BCL2 relative expression,[2]; [11],0.00
same,BIRC5 relative expression,[2]; [11],0.26
same,CCNA2 relative expression,[2]; [12],0.12
same,CCNB1 relative expression,[2]; [12],0.24
same,CCND1 relative expression,[2]; [12],0.12
same,CCND2 relative expression,[2]; [12],0.00
same,CCNE1 relative expression,[2]; [12],0.12
same,CCNE2 relative expression,[2]; [12],0.10
same,CDC42 relative expression,[2]; [12],0.02
same,CDK2 relative expression,[2]; [12],0.12
same,CDK4 relative expression,[2]; [12],0.30
same,CDKN1A relative expression,[2]; [12],0.34
same,CDKN1B relative expression,[2]; [12],0.12
same,CDKN2A relative expression,[2]; [12],0.14
same,CDKN2B relative expression,[2]; [12],0.24
same,CDKN2C relative expression,[2]; [12],0.14
same,CDKN2D relative expression,[2]; [12],0.06
same,IL6 relative expression,[2]; [13],0.00
same,JAK1 relative expression,[2]; [13],1.32
same,JAK2 relative expression,[2]; [13],0.05
same,JAK3 relative expression,[2]; [13],0.04
same,STAT1 relative expression,[2]; [13],0.34
same,STAT2 relative expression,[2]; [13],0.12
same,STAT3 relative expression,[2]; [13],0.20
same,STAT6 relative expression,[2]; [13],0.12
same,STATSB relative expression,[2]; [13],0.22
same,MMP1 relative expression,"[2]; normalized for GAPDH, invasion",0.02
same,MMP2 relative expression,"[2]; normalized for GAPDH, invasion",0.24
same,MMP3 relative expression,"[2]; normalized for GAPDH, invasion",0.00
same,MMP7 relative expression,"[2]; normalized for GAPDH, invasion",0.04
same,MMP9 relative expression,"[2]; normalized for GAPDH, invasion",0.04
same,PTGS2 relative expression,"[2]; normalized for GAPDH, invasion",0.10
same,RAC1 relative expression,"[2]; normalized for GAPDH, invasion",0.12
same,RAC2 relative expression,"[2]; normalized for GAPDH, invasion",0.01
same,KIT relative expression,[2]; [14],0.00
same,NOTCH1 relative expression,[2]; [14],0.06
same,SRC relative expression,[2]; [14],0.15
